Measured values as given in patent publication US6979447B2, “Immunomodulation and effect on cell processes relating to serotonin family receptors” (Philadelphia Health and Education Corporation, priority 2001, dated 2005).

Legend:
murine lymphocytes = assay: Murine mixed lymphocyte reaction (BALB/c vs. C57BL6); assay type: cell-based, mouse; conditions: BALB/c vs. C57BL6, FIG. 10
Procedure: MLRs were performed essentially as described in Current Protocols in Immunology (1999, Section 3.12.6-3.12.7). That is, the primary spleen cells obtained from C57/B6J mice were used as stimulators. They were purified as described in Current Protocols in Immunology (1999, Section 3.1.5), and were irradiated (35 Gy) at the Hahnemann Hospital (Philadelphia, Pa.) blood bank facility. Primary spleen cells obtained from BALB/c/BYJ were depleted from the adherent cells using a nylon wool column, and were used as responders.
The various inhibitors were pre-plated onto 96 well, U-bottom plates and all experimental conditions were assayed at least in triplicate. 100,000 C57/B6 cells in RPMI medium, supplemented with 10% FBS, were plated into each well. 200,000 of BALB/c/BYJ cells were plated over the stimulator cells, to a final volume of 200 μl/well. Background controls received either no BALB/c cells, or no C57/B6 cells. One micro Ci of tritiated thymidine was added to each well after 4 days, and the plates were harvested 12 hours later.

human lymphocytes [1] = assay: Human mitogenic (ConA) stimulation, 3H-thymidine incorporation; assay type: cell-based; conditions: for effect on activation / proliferative response: ConA 5 μg/ml, FIGS. 7A, 8A, 9A
Procedure: Blood from healthy volunteers was drawn using venipuncture, using Vacutainer collection sets and heparinized collection vials. The blood was diluted 1:1 using HBSS to a total volume of 30 ml in 50 ml conical tubes (Fisher Scientific, Co., Pittsburgh, Pa.). […] Cells from the buffy coats were collected and the residual Histopaque was washed away using repeated centrifugations in HBSS. After washes, cells were resuspended at 5 million cells per ml in RPMI, supplemented with 2% FBS. To remove adherent cells, the suspension was plated onto a 6 well flat-bottom plate (Corning Costar), 3 ml/well, and incubated for 2 hours at 37° C., 5% CO2. Non-adherent cells were harvested after this incubation, were counted and resuspended in RPMI supplemented with 10% human serum (Sigma).
All drugs were pre-plated before the cell suspension was added onto each well of a 96-well round-bottom plate. All experimental conditions were assayed in at least triplicate. Cells suspended in RPMI supplemented with 10% human serum were plated at 100,000 cells per well to a final volume of 200 μl. […] Control samples received no ConA stimulation. The plates were incubated at 37° C. and 5% CO2. One microCurie of tritiated thymidine was added to each well after 60 hours, and the plates were harvested 12 hours later.

human lymphocytes [2] = assay: Human mixed lymphocyte reaction (allogeneic stimulation); assay type: cell-based; conditions: allogeneic stimulation, harvested 120 hours, FIGS. 7B, 8B, 9B
Description: Blood from two healthy, non-related, donors was taken as described above. Peripheral blood mononuclear cells were isolated as described previously elsewhere. The adherent cells were separated from the suspension cells as described previously for both donors. Suspension cells from both donors (donors A and B) were used as responders. The remaining adherent cells from each of the donors were used as stimulators against a different donor (suspension A against adherent B and adherent A against suspension B). The stimulator cells were irradiated at 35 Gy. Drugs were pre-plated onto 96 well, U-bottom plates in triplicate. 200,000 “stimulator” cells in RPMI supplemented with 10% human serum were then plated in each well. 200,000 “responder” cells in the same medium were then plated over stimulators to a final volume of 200 μl/well. Background controls received either no stimulator cells, or no responder cells. The plates were incubated at 37° C. and 5% CO2. 1 μCi of tritiated thymidine was added to each well after 4.5 days, and the plates were harvested 12 hours later.

[3] = system: RPMI 8226 multiple myeloma cells; assay: RPMI 8226 cell proliferation / viability (trypan blue, MTT, 3H-thymidine); assay type: cell-based, human; conditions: low dose-titration, FIGS. 23, 24 and 25
Procedure: The human plasmacytoma (multiple myeloma) cell line, RPMI 8226 (American Type Culture Collection, Manassas, Va.), was cultured in RPMI 1640 supplemented with 10 mM HEPES, 1 mM sodium pyruvate, 4.5 g/L glucose, 1.5 g/L bicarbonate and 20% FBS (non-heat inactivated).
Cell proliferation was assayed by three methods—Trypan Blue Exclusion was used to quantify the number of viable cells in culture; 3-(4,5-dimethylthiazol-2-yl)-2,5-diphenyl tetrazolium bromide (MTT) reduction was used to assay mitochondrial activity (and thus cell viability); and ^3H-Thymidine uptake was employed to assay for active DNA synthesis.
The following 5-HT receptor modulating compounds were tested for their effects on RPMI 8226 cells in vitro cultured at the described densities and across the indicated concentration ranges.

RPMI-8226 cells = assay: Hematoxylin-eosin / bis-benzamide staining of RPMI-8226 cytospins; assay type: cell-based, human
Procedure: 2.0×10^5 RPMI-8226 cells were cultured, in 6-well culture plates, in the presence of the indicated drug concentrations, in a total of 5 mL RPMI-1640 supplemented with 10% FBS. Each well was harvested in its entirety and divided into two identical samples for cytospins.
1.0×10^5 RPMI-8226 cells from each treatment group were loaded into Cyto-funnels and centrifuged at 500 rpm for 4 minutes with medium acceleration. Slides were then fixed through graded methanol in PBS (100%, 5 minutes; 80%, 5 minutes; 50%, 5 minutes), washed for 5 minutes in PBS and stored in PBS at 4° C. until stained.
Cytospun slides were stained with Hematoxylin and Eosin, followed by the nuclear stain, bis-benzamide, rinsed and mounted according to standard staining protocols. Slides were visualized under both brightfield and fluorescent light to generate matched images of the same slide field (see, e.g., FIGS. 28 and 29).

T cells = assay: Macrophage media-conditioning study, T cell proliferation in conditioned media; assay type: cell-based, mouse; conditions: added to conditioned media, FIG. 1
Description: Femur and tibia bones were harvested from the hind limbs of 6-8 week old C57/B6J mice (Jackson Laboratories, Bar Harbor, Me.). The distal ends of the bones were removed, exposing the marrow plugs. Using a 22 gauge needle (Becton-Dickinson, Lincoln Park, N.J.), the marrow cavities were flushed with RPMI medium supplemented 2% FBS. The cell suspension was then passed through a nylon mesh to remove stromal cells. Red blood cells were lysed using ACK (ammonium chloride potassium lysis buffer; 0.15 M NH4Cl, 10 mM KHCO3, 0.1 mM EDTA) buffer as described in Current Protocols in Immunology (Section 3.1.5).
Cells were resuspended at 10^7 cells/ml in RPMI medium, containing 10% FBS, 500 units/ml of murine M-CSF, and 3 ml/well of cell suspension were plated onto a 6 well flat-bottom plate. […] Cells were grown for 4 days. Spleens of 6-8 week old BALB/c/BYJ were harvested, and single cell suspension was made. Red blood cells were removed as described above. Adherent cells were removed by 1.5 hour incubation on a nylon wool column, and suspension cells were collected. The BALB/c cells were then plated over the C57/B6 cells (see supra), at 1.2×10^6 cells/well, in 0.65 ml (bringing brought the final volume of each well to 1.3 ml). The cells were grown for 2.5 days. When appropriate, fluoxetine or BCH were added at the beginning of this incubation. The medium from the mixed cell cultures was harvested, centrifuged at 1200 RPM to remove cells, and filtered using a 0.22 microns syringe filter (Corning). This filtered medium was used to support another round of cell proliferation.

5-methyl hydroxytryptamine
effect on outcome of murine MLR (murine lymphocytes): slight enhancement

CNc1cc(NS(=O)(=O)c2ccc(N)cc2)nc(NC)n1 [Ro 04-679]
effect on outcome of murine MLR (murine lymphocytes): no effects on the outcome of the assay

Cc1cc2c(cc1Cl)N(C(=O)Nc1ccc(Oc3cccnc3C)nc1)CC2 [SB 242084]
inhibitory profile when dosed at time=0 or time=48 hours (human lymphocytes [1]; ConA 1 μg/ml, harvested 72 hours, FIG. 12): retained the complete inhibitory profile
effect on activation / proliferative response (human lymphocytes [1]; harvested 72 hours): inhibit the activation response at pharmacologically relevant concentrations
effect on activation / proliferative response (human lymphocytes [2]): inhibit the activation response at pharmacologically relevant concentrations
effect on growth of RPMI-8226 cells [3]: strong inhibition of growth
chromatin / nuclear morphology (RPMI-8226 cells; 50 μM, 9 hour treatment, FIGS. 28, 29): condensed and fragmented chromatin
induction of programmed cell death (RPMI-8226 cells; FIGS. 28 and 29): induced programmed cell death comparable to that induced by the topoisomerase I inhibitor, camptothecin

CSc1ccc2c(c1)C(N1CCN(C)CC1)Cc1ccccc1S2 (centres unmarked) [methiothepin]
effect on activation / proliferative response (human lymphocytes [1]; harvested 72 hours): inhibit the activation response at pharmacologically relevant concentrations
effect on activation / proliferative response (human lymphocytes [2]): inhibit the activation response at pharmacologically relevant concentrations
effect on growth of RPMI-8226 cells [3]: strong inhibition of growth

N[C@@H](Cc1c[nH]c2ccccc12)C(=O)O [tryptophan]
relief of phenelzine-induced inhibition (human lymphocytes [1]; ConA 1 μg/ml, added to phenelzine-inhibited cells, 100 μM each, FIG. 6): had very little effect
effect on proliferative response (human lymphocytes [1]; ConA 1 μg/ml, reagent 100 μM, FIG. 6): enhanced the proliferative response
effect on proliferative response (human lymphocytes [1]; highest ConA dose, 10 μg/ml, harvest 72 hours, FIG. 5C): no enhancement at the highest level
effect on stimulation of ConA-stimulated human PBLs (human lymphocytes [1]; reagents at 400 μM, time course, FIG. 4): enhanced the maximal stimulation of the cells
effect on proliferative response (human lymphocytes [1]; weakest signal strength, 0.1 μg/ml ConA, harvest 72 hours, FIG. 5A): augments the proliferative response
restoration of T cell proliferation in conditioned media (T cells): had no effect
